These results are taken from PubChem BioAssay (NCI).

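Results reflect a 48-hour exposure of cells in 96-well plates to compound at five concentrations. Here, GI50 denotes the concentration required for 50% inhibition of growth. The concentration for full growth arrest is given as TGI.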

Holding throughout (experiment): growth of human tumour cells (NCI), 48 h
The subject of assay [1] is COLO 205 colon.
Assay [2] concerns EKVX NSCLC.
Assay [3] relates to KM12 colon.
Assay [4] has as its system MALME-3M melanoma.
Assay [5] relates to NCI-H226 lung.
The subject of assay [6] is SN12C renal.
Assay [7] deals with U251 CNS.
Assay [8] has as its system M14 melanoma.

Take `COc1c(CNC(=O)CCl)cc2[nH]c(C)cc2c1CNC(=O)CCl`: the GI50 in assay [1] is 10.6 µM; in assay [2] it was 11 µM; in assay [3], 6.08 µM; in assay [4] it was 16.1 µM; in assay [5], 9.2 µM; in assay [6], 4.92 µM. The GI50 in assay [7] is 1.94 µM. Moreover, the TGI was found to be 27.8 µM in assay [1]; 27.5 µM in assay [2]; 19.4 µM in assay [3]; 50.3 µM in assay [4]; 73.7 µM in assay [5]; 39.9 µM in assay [6]. For the same molecule, in assay [7], the TGI worked out at 4.7 µM.

As to `COc1cccc(C2NC(=S)NC(C)=C2C(=O)Nc2ccc(F)c(Cl)c2)c1` (stereo not given), the GI50 is 27.2 µM in assay [1]; 22.8 µM in assay [2]; 18.2 µM in assay [3]; 25.2 µM in assay [8]; 26.1 µM in assay [6]; 23.9 µM in assay [7]. In addition, the TGI in assay [1], in assay [2], in assay [3], in assay [8], in assay [6] and in assay [7] was more than 50 µM throughout.

Consider `COC(=O)Nc1nc2cc3c(cc2s1)OCCO3`, for which the GI50 in assay [1], in assay [3], in assay [8], in assay [4], in assay [5] and in assay [6] was more than 50 µM throughout. Moreover, in assay [7], the GI50 is more than 50 µM. The TGI in assay [1], in assay [3], in assay [8], in assay [4], in assay [5] and in assay [6] was more than 50 µM each time. In assay [7], this molecule had a TGI of more than 50 µM.

With `O=C1C(Cl)=C(Nc2cccc(O)c2)C(=O)N1c1ccc(Cl)c(Cl)c1`, the GI50 was 32 µM in assay [1]; 17 µM in assay [3]; 18.9 µM in assay [8]; 19.7 µM in assay [4]; 19.7 µM in assay [5]; 18.1 µM in assay [6]. In assay [7], the GI50 is 15.5 µM. For the same molecule, the TGI in assay [1] stood at 89.9 µM; in assay [3], 32.5 µM; in assay [8], 37.4 µM; in assay [4] it was 55 µM; in assay [5], 46.6 µM; in assay [6], 39.4 µM. In assay [7], this molecule came in with a TGI of 30.9 µM.

`CN(C)CCN=Cc1c2ccccc2c(=O)n2c1oc1ccccc12`: the GI50 was 6.76 µM in assay [2]; 8.8 µM in assay [3]; 15.2 µM in assay [8]; 10 µM in assay [5]; 3.81 µM in assay [6]; 7.4 µM in assay [7]. Besides, the TGI came out at 21.4 µM in assay [2]; 21.7 µM in assay [3]; 31.2 µM in assay [8]; 36.7 µM in assay [5]; 17.1 µM in assay [6]; 21 µM in assay [7].

As for `COc1ccc(/C=C/c2cc(N3CCOCC3)c3cc(F)c(F)cc3n2)cc1OC`, the GI50 in assay [1] is 0.558 µM; in assay [3] it was 1.24 µM; in assay [8], 0.762 µM; in assay [5], 1.1 µM; in assay [6], 1.68 µM; in assay [7], 0.728 µM. In addition, the TGI in assay [1] amounted to 3.81 µM; in assay [3], 13.7 µM; in assay [8], 3.92 µM; in assay [5], 4.82 µM; in assay [6], 14.1 µM; in assay [7], 10.5 µM.

As for `CC(=O)OCC1OC(OC2=C(CC=C(Cl)Cl)C(=O)c3ccccc3C2=O)C(OC(C)=O)C(OC(C)=O)C1OC(C)=O` (stereo not given), the GI50 was 13.6 µM in assay [1]; 3.26 µM in assay [3]; 12.6 µM in assay [8]; 2.66 µM in assay [4]; 15.6 µM in assay [5]; 5.62 µM in assay [6]. Besides, the GI50 in assay [7] was 3.54 µM. Moreover, the TGI in assay [1] was determined as 36.3 µM; in assay [3], 10.1 µM; in assay [8] it was 28 µM; in assay [4] it was 5.83 µM; in assay [5], 50.5 µM; in assay [6], 18.7 µM. This molecule also showed a TGI in assay [7] of 13.3 µM.

Turning to `COc1ccc(-c2nn(-c3cccc(NC(=O)Nc4cc(C(F)(F)F)cc(C(F)(F)F)c4)c3)cc2-c2ccncc2)cc1Cl`, the GI50 was 0.894 µM in assay [1]; 1.09 µM in assay [3]; 0.913 µM in assay [8]; 1.23 µM in assay [4]; 1.33 µM in assay [5]; 1.27 µM in assay [6]. In addition, the GI50 in assay [7] was 0.731 µM. Besides, the TGI amounted to 1.74 µM in assay [1]; 4.17 µM in assay [3]; 2.51 µM in assay [8]; 4.2 µM in assay [4]; 6.35 µM in assay [5]; 7.95 µM in assay [6]. In assay [7], this molecule registered a TGI of 1.73 µM.

Take `NCC1OC(OC2C(CO)OC(OC3C(O)C(N)CC(N)C3OC3OC(CO)C(O)C(O)C3N)C2O)C(N)C(O)C1O` (stereo not given): the GI50 in assay [1], in assay [2], in assay [3], in assay [8], in assay [5] and in assay [7] was more than 50 µg/mL each time. Moreover, the TGI in assay [1], in assay [2], in assay [3], in assay [8], in assay [5] and in assay [7] was more than 50 µg/mL throughout.

For the molecule `O=C(NNC(=O)c1ccncc1)c1ccncc1`, the TGI in assay [1], in assay [2], in assay [3], in assay [8], in assay [4] and in assay [6] was more than 100 µM each time. In assay [7], the TGI is more than 100 µM.

In the case of `COc1cc(C2CC(c3cc(C)ccc3C)=NN2c2ccc(S(=O)(=O)NC(=O)NCc3ccccc3)cc2)cc(OC)c1OC` (stereo not given), the GI50 in assay [3] was 3.44 µM; in assay [4] it was 3.48 µM; in assay [5], 3.63 µM; in assay [6] it was 3.15 µM; in assay [7], 3.31 µM. Besides, the TGI in assay [3] is 17.6 µM; in assay [4], 9.61 µM; in assay [5], 15.6 µM; in assay [6], 18.1 µM; in assay [7] it was 17.3 µM.
